The source made the active and inactive calls.

The EC50 is the concentration at which the effect is half-maximal. For orientation: CC50 means the concentration that lowers cell viability or growth by half. A word on the IC50: it is the concentration at which inhibition is half-maximal. What is called AC50 is the concentration giving half of the maximal activity seen.

T4 sequence (P49327 whole entry, the tested form may be a part): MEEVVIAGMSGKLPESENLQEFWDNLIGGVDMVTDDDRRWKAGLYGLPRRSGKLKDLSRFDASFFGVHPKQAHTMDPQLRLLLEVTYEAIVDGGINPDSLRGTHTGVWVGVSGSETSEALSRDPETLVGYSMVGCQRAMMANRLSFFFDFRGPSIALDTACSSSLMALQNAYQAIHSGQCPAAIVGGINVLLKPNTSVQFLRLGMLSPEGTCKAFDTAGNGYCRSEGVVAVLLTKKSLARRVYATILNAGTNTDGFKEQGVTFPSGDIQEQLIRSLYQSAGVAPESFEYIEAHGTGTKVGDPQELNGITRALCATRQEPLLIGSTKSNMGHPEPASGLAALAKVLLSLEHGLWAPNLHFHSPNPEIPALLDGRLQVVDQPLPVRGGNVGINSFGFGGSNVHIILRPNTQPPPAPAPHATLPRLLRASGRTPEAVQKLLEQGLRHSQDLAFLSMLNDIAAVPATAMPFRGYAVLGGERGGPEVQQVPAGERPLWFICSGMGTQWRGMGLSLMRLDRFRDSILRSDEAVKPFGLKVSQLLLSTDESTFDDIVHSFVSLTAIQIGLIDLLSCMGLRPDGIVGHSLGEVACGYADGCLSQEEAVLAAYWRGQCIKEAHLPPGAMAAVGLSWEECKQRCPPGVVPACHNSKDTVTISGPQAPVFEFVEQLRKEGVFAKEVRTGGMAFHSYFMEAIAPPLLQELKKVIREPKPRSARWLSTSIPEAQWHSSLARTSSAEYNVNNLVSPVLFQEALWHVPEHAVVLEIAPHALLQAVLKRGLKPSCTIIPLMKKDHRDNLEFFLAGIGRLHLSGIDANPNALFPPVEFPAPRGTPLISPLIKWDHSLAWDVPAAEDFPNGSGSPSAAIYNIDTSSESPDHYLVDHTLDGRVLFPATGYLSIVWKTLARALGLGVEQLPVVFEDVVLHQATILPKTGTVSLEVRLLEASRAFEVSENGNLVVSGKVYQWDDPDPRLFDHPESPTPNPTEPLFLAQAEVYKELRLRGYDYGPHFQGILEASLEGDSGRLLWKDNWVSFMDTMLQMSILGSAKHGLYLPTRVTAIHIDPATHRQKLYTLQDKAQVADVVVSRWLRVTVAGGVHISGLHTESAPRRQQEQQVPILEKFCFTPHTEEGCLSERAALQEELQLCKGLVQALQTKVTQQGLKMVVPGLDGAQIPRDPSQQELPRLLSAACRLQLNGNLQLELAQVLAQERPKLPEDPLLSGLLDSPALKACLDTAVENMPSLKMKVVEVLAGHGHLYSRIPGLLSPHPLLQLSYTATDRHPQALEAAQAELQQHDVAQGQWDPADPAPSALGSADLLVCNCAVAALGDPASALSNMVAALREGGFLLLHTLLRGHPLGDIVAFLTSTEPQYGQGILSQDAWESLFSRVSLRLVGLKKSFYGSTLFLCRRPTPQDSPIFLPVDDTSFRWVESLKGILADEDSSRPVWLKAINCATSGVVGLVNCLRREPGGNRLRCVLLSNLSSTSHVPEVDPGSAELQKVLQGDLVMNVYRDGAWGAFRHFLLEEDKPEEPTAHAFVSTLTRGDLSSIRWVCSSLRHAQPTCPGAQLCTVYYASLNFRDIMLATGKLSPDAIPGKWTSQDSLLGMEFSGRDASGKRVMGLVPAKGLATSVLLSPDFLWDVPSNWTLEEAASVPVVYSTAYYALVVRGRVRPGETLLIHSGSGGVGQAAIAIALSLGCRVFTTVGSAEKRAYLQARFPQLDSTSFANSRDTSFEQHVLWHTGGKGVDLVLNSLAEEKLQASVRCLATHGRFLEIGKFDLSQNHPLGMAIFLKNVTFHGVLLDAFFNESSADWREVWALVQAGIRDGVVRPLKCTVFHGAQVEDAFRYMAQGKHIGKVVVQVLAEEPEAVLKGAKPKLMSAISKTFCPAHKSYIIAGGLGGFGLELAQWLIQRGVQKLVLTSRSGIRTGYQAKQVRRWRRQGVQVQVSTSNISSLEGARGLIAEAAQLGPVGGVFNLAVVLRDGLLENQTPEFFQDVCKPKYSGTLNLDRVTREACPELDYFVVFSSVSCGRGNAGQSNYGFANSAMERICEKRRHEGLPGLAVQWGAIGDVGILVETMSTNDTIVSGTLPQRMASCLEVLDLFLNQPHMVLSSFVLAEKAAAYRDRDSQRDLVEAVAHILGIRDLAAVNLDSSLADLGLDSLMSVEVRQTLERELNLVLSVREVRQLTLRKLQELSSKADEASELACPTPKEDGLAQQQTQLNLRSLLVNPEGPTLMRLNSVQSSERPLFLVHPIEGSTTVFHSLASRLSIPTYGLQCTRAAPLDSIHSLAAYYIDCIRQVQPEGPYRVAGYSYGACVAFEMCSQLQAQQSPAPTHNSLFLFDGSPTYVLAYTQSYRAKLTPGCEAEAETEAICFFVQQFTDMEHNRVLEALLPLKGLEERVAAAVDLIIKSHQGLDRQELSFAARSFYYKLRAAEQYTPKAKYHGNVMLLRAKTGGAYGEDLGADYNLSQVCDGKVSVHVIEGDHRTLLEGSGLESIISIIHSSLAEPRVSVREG
Chain of Large T antigen (P03070 whole entry): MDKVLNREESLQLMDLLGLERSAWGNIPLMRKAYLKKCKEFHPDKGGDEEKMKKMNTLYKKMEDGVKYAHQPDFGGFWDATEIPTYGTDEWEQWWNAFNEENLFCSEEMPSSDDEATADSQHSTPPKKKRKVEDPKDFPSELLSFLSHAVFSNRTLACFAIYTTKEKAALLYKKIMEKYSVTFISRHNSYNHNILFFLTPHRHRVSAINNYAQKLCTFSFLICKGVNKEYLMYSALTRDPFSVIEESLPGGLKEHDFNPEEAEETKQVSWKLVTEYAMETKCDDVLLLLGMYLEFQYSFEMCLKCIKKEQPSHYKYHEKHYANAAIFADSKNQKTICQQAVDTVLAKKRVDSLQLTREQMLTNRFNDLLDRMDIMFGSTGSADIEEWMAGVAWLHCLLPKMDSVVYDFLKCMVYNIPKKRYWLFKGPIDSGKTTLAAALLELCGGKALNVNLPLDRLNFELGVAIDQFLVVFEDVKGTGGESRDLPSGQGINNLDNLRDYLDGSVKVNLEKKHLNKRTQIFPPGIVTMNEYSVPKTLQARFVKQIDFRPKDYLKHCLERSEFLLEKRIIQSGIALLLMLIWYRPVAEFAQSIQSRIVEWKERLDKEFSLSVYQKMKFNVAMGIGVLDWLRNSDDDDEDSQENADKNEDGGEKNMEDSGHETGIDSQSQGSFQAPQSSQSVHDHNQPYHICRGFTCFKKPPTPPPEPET
Chain of Nuclear receptor subfamily 5 group A member 2 (O00482 whole entry): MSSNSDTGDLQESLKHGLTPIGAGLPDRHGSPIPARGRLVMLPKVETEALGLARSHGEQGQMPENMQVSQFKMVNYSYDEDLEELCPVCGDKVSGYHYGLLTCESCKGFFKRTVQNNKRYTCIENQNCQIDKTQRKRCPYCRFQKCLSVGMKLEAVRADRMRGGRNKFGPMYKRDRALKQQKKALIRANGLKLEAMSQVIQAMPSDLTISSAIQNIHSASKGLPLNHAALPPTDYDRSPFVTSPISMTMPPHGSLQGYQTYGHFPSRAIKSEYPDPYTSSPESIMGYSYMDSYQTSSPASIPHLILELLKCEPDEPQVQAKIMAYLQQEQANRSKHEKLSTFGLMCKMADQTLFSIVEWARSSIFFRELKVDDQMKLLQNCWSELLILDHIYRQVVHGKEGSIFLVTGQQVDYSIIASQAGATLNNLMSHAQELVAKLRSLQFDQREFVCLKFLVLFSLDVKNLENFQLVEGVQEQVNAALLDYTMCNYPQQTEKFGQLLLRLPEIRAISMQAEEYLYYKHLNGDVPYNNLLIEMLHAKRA

System in the first assay: not listed separately
Description: NIH-3T3 fibroblast cytotoxicity, dose response, cytotoxicity control, cell-based, fluorescence, Alamar Blue, secondary assay (AID 2327).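 Further: NIH-3T3 mouse fibroblasts cultured with fluconazole at 8 µg/mL.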 It counts as functional.
Settings: not given
In general terms: Alamar Blue is a resazurin reagent that responds to reducing activity.
`CC(C)(C)CC(=O)Nc1nnc(C(F)(F)F)s1`: the EC50 is > 160 µM (inactive).

As to `C=CCn1c(O)c(N=NC(=S)Nc2ccc(OC)cc2)c2ccccc21`, the EC50 was > 150 µM (inactive).

With `Nc1nc(CN2CCN(c3ccccn3)CC2)nc(Nc2ccc(F)cc2)n1`, the EC50 is > 150 µM (inconclusive).

As to `CN(C)c1ccc(NC(=O)C2C3C=CC(C3)C2C(=O)O)cc1` (stereo unspecified), the EC50 is > 160 µM (inactive).

System in another assay: not listed separately
Description: HEp-2 cell cytotoxicity, dose response, cytotoxicity control for RSV inhibitor project, HTS (AID 2410). It counts as functional. The conditions noted are these: human respiratory syncytial virus.
Take `O=C(CCn1c(=O)c2ccccc2n(Cc2cccc([N+](=O)[O-])c2)c1=O)N1CCc2ccccc2C1`: the CC50 was > 50 µM (active).

In the next assay the target is T1, RNA-binding protein pos-1 (Caenorhabditis elegans, UniProt G5EF15).
T1 sequence (G5EF15 whole entry): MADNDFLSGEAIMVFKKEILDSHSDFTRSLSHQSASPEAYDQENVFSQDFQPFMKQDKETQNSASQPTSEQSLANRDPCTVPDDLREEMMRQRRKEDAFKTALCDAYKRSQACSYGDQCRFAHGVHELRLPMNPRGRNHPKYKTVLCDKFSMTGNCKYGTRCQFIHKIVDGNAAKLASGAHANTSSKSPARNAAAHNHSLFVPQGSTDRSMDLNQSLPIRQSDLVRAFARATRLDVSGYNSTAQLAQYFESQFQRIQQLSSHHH
Nature of the assay: inhibitors of POS-1/mex-3 RNA binding, dose response, biochemical, fluorescence polarization (AID 1964).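 Further: purified POS-1 fused to maltose binding protein made in E. coli; potency of compounds blocking POS-1 binding to fluorescent RNA.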
Settings: not given
(In general: Fluorescence polarisation rises when a labelled molecule tumbles more slowly, as on binding a larger partner.)
For `CCCN1CCc2cc(O)cc3c2[C@H]1Cc1ccc(O)c(O)c1-3`, the EC50 is > 300 µM (inconclusive).

Consider `O=C(CCc1ccc(O)c(O)c1)N/N=C/c1cc2c(cc1[N+](=O)[O-])OCO2`, for which the half-maximal effective concentration (EC50) was 24 µM (active).

Another assay concerns the target T2, Zinc finger protein mex-5 (Caenorhabditis elegans, UniProt Q9XUB2).
T2 sequence (Q9XUB2 whole entry): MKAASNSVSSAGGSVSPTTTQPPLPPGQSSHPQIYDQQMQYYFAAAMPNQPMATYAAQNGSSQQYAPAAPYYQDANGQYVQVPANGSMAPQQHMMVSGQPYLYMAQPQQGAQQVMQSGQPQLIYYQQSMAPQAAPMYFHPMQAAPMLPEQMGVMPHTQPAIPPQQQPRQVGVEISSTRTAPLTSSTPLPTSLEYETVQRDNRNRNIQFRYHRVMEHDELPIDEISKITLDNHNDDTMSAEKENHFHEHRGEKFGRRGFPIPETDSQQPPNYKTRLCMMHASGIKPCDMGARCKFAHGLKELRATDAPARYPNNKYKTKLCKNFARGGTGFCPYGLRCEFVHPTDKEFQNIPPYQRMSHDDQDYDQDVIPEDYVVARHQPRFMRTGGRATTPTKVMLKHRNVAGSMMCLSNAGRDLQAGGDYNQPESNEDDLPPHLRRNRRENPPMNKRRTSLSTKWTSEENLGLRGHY
Nature of the assay: MEX-5/TCR-2 RNA interaction inhibitors, dose response, biochemical, C. elegans, fluorescence polarization (AID 1960).
Settings: not given
For `CCCN1CCc2cc(O)cc3c2[C@H]1Cc1ccc(O)c(O)c1-3`, the 50% effective concentration (EC50) is > 300 µM (inconclusive).

Turning to `O=C(CCc1ccc(O)c(O)c1)N/N=C/c1cc2c(cc1[N+](=O)[O-])OCO2`, the EC50 was 6.35 µM (active).

System in another assay: not listed separately
Description: C. albicans growth with fluconazole, confirmation, fluorescence, retest (AID 2467). It counts as functional, cell-based.
Settings: not given
On to `CC(C)(C)CC(=O)Nc1nnc(C(F)(F)F)s1`, for which the EC50 was 0.13 µM (active).

With `Nc1nc(CN2CCN(c3ccccn3)CC2)nc(Nc2ccc(F)cc2)n1`, the EC50 was > 38 µM (not active).

Consider `CN(C)c1ccc(NC(=O)C2C3C=CC(C3)C2C(=O)O)cc1` (stereo unspecified), for which the EC50 was > 38 µM (not active).

A further assay addresses Large T antigen (Simian virus 40, UniProt P03070). Type of assay: functional, Betapolyomavirus macacae.
Settings: not given
In the case of `CCCN1CCc2cc(O)cc3c2[C@H]1Cc1ccc(O)c(O)c1-3`, the 50% inhibitory concentration (IC50) is 24 µM (active).

For `O=C(CCc1ccc(O)c(O)c1)N/N=C/c1cc2c(cc1[N+](=O)[O-])OCO2`, the concentration for half-maximal inhibition (IC50) was 13.8 µM (active).

For the next assay, the target named is Glucose-6-phosphate 1-dehydrogenase (Homo sapiens, UniProt P11413). Description: human G6PD enzyme inhibitors, dose response, selectivity assay for P. falciparum G6PD inhibitor project, biochemical, fluorescence (AID 504792). Type of assay: functional.
Chain of Glucose-6-phosphate 1-dehydrogenase (P11413 whole entry): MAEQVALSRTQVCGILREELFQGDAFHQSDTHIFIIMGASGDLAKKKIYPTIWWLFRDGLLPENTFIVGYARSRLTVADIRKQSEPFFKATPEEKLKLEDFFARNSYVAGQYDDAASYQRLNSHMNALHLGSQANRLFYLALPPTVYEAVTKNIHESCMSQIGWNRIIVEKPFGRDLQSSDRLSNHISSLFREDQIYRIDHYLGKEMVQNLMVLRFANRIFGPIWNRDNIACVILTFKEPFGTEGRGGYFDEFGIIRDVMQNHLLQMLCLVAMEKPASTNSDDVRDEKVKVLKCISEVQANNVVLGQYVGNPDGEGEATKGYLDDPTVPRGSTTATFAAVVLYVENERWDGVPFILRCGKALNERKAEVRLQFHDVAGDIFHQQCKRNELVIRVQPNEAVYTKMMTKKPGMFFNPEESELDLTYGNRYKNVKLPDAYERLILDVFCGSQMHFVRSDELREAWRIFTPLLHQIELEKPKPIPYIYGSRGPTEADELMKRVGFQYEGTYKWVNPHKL
Settings: not given
For `O=C(Cc1ccccc1)NCC(=O)OCC(=O)c1ccc([N+](=O)[O-])cc1`, the IC50 is > 80 µM (inactive).

`CCCN1CCc2cc(O)cc3c2[C@H]1Cc1ccc(O)c(O)c1-3`: the IC50 was > 80 µM (inactive).

For `O=C(CCc1ccc(O)c(O)c1)N/N=C/c1cc2c(cc1[N+](=O)[O-])OCO2`, the IC50 was > 80 µM (inactive).

A further assay deals with T3, Short transient receptor potential channel 4 (Mus musculus, UniProt Q9QUQ5).
T3 sequence (Q9QUQ5 whole entry): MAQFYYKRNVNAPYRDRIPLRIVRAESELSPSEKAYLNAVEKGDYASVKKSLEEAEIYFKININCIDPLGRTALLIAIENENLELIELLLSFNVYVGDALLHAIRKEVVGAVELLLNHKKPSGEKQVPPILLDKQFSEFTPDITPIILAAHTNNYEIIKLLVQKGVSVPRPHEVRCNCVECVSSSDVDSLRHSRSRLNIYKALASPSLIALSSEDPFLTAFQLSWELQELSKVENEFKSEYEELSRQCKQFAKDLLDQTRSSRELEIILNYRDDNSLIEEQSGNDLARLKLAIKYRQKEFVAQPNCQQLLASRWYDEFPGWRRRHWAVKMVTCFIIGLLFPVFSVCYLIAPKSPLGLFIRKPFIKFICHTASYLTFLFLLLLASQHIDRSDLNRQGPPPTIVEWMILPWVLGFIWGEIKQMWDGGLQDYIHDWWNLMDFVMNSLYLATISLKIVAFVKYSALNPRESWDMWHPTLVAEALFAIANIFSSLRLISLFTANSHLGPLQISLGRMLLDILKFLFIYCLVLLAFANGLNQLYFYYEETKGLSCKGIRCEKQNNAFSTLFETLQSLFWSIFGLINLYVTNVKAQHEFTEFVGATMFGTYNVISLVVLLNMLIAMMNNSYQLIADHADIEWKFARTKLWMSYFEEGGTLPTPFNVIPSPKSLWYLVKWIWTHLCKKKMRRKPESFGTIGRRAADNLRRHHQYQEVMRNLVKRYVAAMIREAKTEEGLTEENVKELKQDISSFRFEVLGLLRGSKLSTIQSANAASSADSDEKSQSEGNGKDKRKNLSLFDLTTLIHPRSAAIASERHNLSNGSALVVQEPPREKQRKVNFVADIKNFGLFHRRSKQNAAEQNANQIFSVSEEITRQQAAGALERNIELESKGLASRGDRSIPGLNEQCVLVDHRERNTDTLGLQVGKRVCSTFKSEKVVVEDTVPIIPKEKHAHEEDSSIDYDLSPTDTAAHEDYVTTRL
Nature of the assay: mouse TRPC4 channel inhibitors, dose response, cell-based, HEK293 TRPC4/mu-opioid, Fluo-4 calcium (AID 434942).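 Further: potency of inhibitors blocking the TRPC4 calcium response.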 Type of assay: functional.
Settings: not given
For `CC(C)(C)NCc1ccccc1OCc1cccs1`, the half-maximal effective concentration (EC50) is 3.76 µM (active).

Turning to `CCc1ccccc1N=C(S)N(CCCN(C)C)Cc1cc2cc3c(cc2nc1O)OCO3`, the EC50 was 1.06 µM (active).

Regarding `CCOC(=O)CSc1nc2ccccc2c(=O)n1CC1CCCC1`, the EC50 was 6.68 µM (active).

Take `Cc1ccn2cc(CCNC(=O)c3ccc(Br)o3)nc2c1`: the 50% effective concentration (EC50) was 7.5 µM (active).

The target in a further assay is Eukaryotic translation initiation factor 4E (Mus musculus, UniProt P63073). Description: eIF4E–eIF4G protein interaction inhibitors, dose response, biochemical, TR-FRET (AID 855).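 Further: potency for disrupting eIF4E binding to eIF4GI seen as loss of FRET.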 It counts as functional.
Chain of Eukaryotic translation initiation factor 4E (P63073 whole entry): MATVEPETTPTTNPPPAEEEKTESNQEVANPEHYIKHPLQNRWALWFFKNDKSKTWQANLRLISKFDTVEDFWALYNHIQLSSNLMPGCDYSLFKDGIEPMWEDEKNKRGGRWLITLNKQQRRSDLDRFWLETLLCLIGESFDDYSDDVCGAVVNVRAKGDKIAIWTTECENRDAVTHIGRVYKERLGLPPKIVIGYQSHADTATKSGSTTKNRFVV
Settings: not given
On the technique in general: TR-FRET usually uses a lanthanide donor and a delayed reading to cut background.
Consider `CC1CCN(C(=O)c2ccc3c(Cl)c4c(nc3c2)CCCC4)CC1`, for which the IC50 is 50 µM (inactive).

In another assay the target is Dual specificity tyrosine-phosphorylation-regulated kinase 1A (Rattus norvegicus, UniProt Q63470). It counts as biochemical, Homo sapiens.
Settings: not given
Take `O=C(Nc1cccc(-c2nn[nH]n2)c1)c1ccc(Br)s1`: the AC50 is 0.875 µM (active).

Consider `NNc1nc2c(Cl)ccc(Cl)c2s1`, for which the half-maximal activity concentration (AC50) was 0.905 µM (active).

The next assay has as its target Nuclear receptor subfamily 5 group A member 2 (Homo sapiens, UniProt O00482). It counts as functional, cell-based.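 Further: HEK293T cells transfected with LRH-1 and a StAR promoter luciferase reporter; potency for inhibitors that lower LRH-1 driven reporter light.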
Settings: not given
As for `CC(=O)Nc1ccc(NC(=O)CSc2nnnn2C2CCCCC2)cc1`, the IC50 was 11.8 µM (inactive).

A further assay has as its target T4, Fatty acid synthase (Homo sapiens, UniProt P49327). Nature of the assay: FAS thioesterase domain inhibitors, dose response, biochemical, endpoint fluorescence intensity, uHTS hits (AID 624327).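 Further: fluorescence from hydrolysis of an O-methyl fluorescein acyl ester substrate by the enzyme.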 It counts as functional.
Settings: not given
Turning to `CC1CCN(C(=O)c2ccc3c(Cl)c4c(nc3c2)CCCC4)CC1`, the IC50 is 5.24 µM (active).

In the case of `O=C(CCn1c(=O)c2ccccc2n(Cc2cccc([N+](=O)[O-])c2)c1=O)N1CCc2ccccc2C1`, the IC50 was 1.26 µM (active).

In a further assay the target is Steroidogenic factor 1 (Homo sapiens, UniProt Q13285). Nature of the assay: Counterscreen for inverse agonists of the liver receptor homolog-1 (LRH-1; NR5A2): Luminescence-based cell-based high throughput dose response assay to identify inverse agonists of the Steroidogenic Factor 1 Nuclear Receptor (SF1; NR5A1). It counts as functional.
Chain of Steroidogenic factor 1 (Q13285 whole entry): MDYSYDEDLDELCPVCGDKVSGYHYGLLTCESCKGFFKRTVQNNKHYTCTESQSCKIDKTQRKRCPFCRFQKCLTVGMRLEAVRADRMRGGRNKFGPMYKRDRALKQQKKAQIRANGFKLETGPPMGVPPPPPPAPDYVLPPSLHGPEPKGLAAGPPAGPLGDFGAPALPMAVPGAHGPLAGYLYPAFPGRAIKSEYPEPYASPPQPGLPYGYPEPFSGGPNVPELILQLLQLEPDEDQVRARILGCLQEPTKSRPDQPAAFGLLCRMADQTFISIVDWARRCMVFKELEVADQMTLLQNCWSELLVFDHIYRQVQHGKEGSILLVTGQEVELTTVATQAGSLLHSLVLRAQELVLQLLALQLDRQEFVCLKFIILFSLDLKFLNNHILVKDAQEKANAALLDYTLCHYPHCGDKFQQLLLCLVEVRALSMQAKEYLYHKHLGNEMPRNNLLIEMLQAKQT
Settings: not given
`CC(=O)Nc1ccc(NC(=O)CSc2nnnn2C2CCCCC2)cc1`: the IC50 is 7.58 µM (active).

System in another assay: not listed separately
Nature of the assay: StAR promoter reporter inhibition counter-screen, dose response, counter-screen for LRH-1 inverse agonist project, cell-based, luminescence, luciferase reporter (AID 651969). It counts as functional.
Settings: not given
As to `CC(=O)Nc1ccc(NC(=O)CSc2nnnn2C2CCCCC2)cc1`, the IC50 is 35.9 µM (inactive).

The next assay deals with T4, Fatty acid synthase. Nature of the assay: FAS thioesterase domain inhibitors, dose response, biochemical, kinetic fluorescence intensity (AID 624326).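 Further: rate of fluorescence rise from hydrolysis of a fluorogenic O-methyl fluorescein ester substrate.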
Settings: not given
Type of assay: functional.
For the compound `CC1CCN(C(=O)c2ccc3c(Cl)c4c(nc3c2)CCCC4)CC1`, the IC50 is 6.9 µM (active).

As for `O=C(CCn1c(=O)c2ccccc2n(Cc2cccc([N+](=O)[O-])c2)c1=O)N1CCc2ccccc2C1`, the IC50 is 1.17 µM (active).

For the origin of these results see ChEMBL document CHEMBL1201862, “PubChem BioAssay data set” (2004).
